Here are results for 1 compound from ChEMBL document CHEMBL5325456, “5-(4-Hydroxyphenyl)-3H-1,2-dithiole-3-thione derivatives of brefeldin A: Design, synthesis and cytotoxicity in MDA-MB-231 human breast cancer cells” (Bioorg Med Chem, 2023).

The test system of series [1] is MDA-MB-231. Briefly: Induction of DNA damage in human MDA-MB-231 cells assessed as tail DNA at 0.165 uM incubated for 48 hrs by Comet assay (reference value: 0.007 %). It is filed as functional.
The nature of series [2]: Selectivity index, ratio of IC50 for antiproliferative activity against human L02 cells to IC50 for antiproliferative activity against human MDA-MB-231 cells. It is filed as toxicity, cell-based. The note with it: L02 cells and MDA-MB-231 cells, read-out: Ratio IC50.
Series [3] has as its system A-375. Briefly: Antiproliferative activity against human A-375 cells assessed as reduction in cell viability incubated for 48 hrs by CCk-8 assay. It counts as functional, cell-based. Particulars: A-375, 48 h.
Series [4] in a line: Antiproliferative activity against human L02 cells assessed as reduction in cell viability incubated for 48 hrs by CCk-8 assay. It is filed as toxicity, cell-based.
The test system of series [5] is MDA-MB-231. The series can be described thus: Induction of apoptosis in human MDA-MB-231 cells assessed as viable cells at 82.5 nM incubated for 48 hrs by Annexin-V/FITC-PI staining based flow cytometry analysis (reference value: 93.74 %). It counts as functional. Particulars: read-out: Activity.
The test system of series [6] is MDA-MB-231. Briefly: Induction of apoptosis in human MDA-MB-231 cells assessed as late apoptotic cells at 0.165 uM incubated for 48 hrs by Annexin-V/FITC-PI staining based flow cytometry analysis (reference value: 2.34 %). It counts as functional.
The test system of series [7] is MDA-MB-231. The series can be described thus: Induction of apoptosis in human MDA-MB-231 cells assessed as late apoptotic cells at 82.5 nM incubated for 48 hrs by Annexin-V/FITC-PI staining based flow cytometry analysis (reference value: 2.34 %). It is filed as functional. On the technique in general: In flow cytometry, cells or beads pass a laser one at a time.
The subject of series [8] is MDA-MB-231. Briefly: Induction of cell cycle arrest in human MDA-MB-231 cells assessed as accumulation of cells at G1 phase at 82.5 nM incubated for 48 hrs by flow cytometry analysis (reference value: 47.44 %). It is filed as functional.
Series [9] deals with MDA-MB-231. The series can be described thus: Induction of apoptosis in human MDA-MB-231 cells assessed as necrotic cells at 0.33 uM incubated for 48 hrs by Annexin-V/FITC-PI staining based flow cytometry analysis (reference value: 0.99 %). It is filed as functional.
The subject of series [10] is MDA-MB-231. Briefly: Induction of cell cycle arrest in human MDA-MB-231 cells assessed as accumulation of cells at G2 phase at 0.33 uM incubated for 48 hrs by flow cytometry analysis (reference value: 16.05 %). It is filed as functional.
For series [11], the system named is MDA-MB-231. The series can be described thus: Induction of apoptosis in human MDA-MB-231 cells assessed as early apoptotic cells at 0.165 uM incubated for 48 hrs by Annexin-V/FITC-PI staining based flow cytometry analysis (reference value: 2.93 %). It counts as functional.

For `C[C@H]1CCC/C=C/[C@@H]2C[C@H](O)C[C@H]2[C@H](OC(=O)CCCC(=O)OCCOc2ccc(-c3cc(=S)ss3)cc2)/C=C/C(=O)O1`, the Activity in [1] is listed as 39.11%; in [6] it was 16.31%; in [7] it was 5.82%; in series [8] it was 56.27%; in series [9], 4.11%; in [10], 7.13%. Also, the Activity in [11] is on record as 10.14%. For the same compound, the selectivity ratio in series [2] came out at 5.3. The half-inhibitory concentration (IC50) in series [3] worked out at 1820 nM. Further, the concentration for half-maximal inhibition (IC50) at 48 h in series [4] came to 1750 nM. The viability at 0.0825 µM in series [5] was 82%.

By IC50 is commonly meant the concentration that gives 50% inhibition.
